No end group written: not given here.
Tested on: not given
Test: not given
Conditions: not given

Substance	β-turn content
H-FDRPFL-OH	39.3%
H-KWEKPF-OH	41.7%

Molecular target: T1, ACE (Oryctolagus cuniculus, UniProt P12822)
T1 sequence (P12822 34-1310): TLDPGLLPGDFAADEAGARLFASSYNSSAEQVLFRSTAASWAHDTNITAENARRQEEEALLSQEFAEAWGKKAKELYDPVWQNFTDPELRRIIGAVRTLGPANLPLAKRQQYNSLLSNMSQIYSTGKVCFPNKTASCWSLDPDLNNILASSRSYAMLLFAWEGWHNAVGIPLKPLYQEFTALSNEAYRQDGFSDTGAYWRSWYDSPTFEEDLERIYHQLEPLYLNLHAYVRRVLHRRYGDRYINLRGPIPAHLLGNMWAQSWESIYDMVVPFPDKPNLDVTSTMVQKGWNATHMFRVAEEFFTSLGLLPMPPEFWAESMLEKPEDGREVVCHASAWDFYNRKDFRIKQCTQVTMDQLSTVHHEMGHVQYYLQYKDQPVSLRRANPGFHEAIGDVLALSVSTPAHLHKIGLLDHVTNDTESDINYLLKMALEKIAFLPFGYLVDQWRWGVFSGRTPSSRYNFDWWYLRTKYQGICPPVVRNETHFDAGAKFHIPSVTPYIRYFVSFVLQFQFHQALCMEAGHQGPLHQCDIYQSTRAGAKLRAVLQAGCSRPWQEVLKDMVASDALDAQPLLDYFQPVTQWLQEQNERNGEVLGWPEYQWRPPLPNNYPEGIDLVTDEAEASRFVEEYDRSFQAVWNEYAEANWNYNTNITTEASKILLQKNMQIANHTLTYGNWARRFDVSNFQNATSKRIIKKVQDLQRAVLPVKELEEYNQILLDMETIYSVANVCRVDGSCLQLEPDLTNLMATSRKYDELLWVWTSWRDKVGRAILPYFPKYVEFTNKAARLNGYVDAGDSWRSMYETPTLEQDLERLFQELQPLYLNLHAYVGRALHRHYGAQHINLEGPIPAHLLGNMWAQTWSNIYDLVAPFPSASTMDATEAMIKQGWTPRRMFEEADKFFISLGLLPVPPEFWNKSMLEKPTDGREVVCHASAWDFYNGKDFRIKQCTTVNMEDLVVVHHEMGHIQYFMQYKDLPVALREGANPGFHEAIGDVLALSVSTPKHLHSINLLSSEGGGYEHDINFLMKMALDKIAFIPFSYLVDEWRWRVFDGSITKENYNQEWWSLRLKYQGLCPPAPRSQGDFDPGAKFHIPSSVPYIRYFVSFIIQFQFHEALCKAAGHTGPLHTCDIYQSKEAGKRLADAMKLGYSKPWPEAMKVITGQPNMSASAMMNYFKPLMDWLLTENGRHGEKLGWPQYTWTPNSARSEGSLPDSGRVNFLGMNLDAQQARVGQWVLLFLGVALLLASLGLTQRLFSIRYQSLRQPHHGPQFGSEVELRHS
Test: not given
Conditions: ACEIPs with mixed inhibitory patterns; ref Chen et al., 2020; Xie et al., 2022; cited from earlier work

Substance	ACE inhibition pattern
SLPEW [literature mixed-pattern ACEIP derived from alpha-lactalbumin]	mixed
VSLPEW [literature mixed-pattern ACEIP derived from alpha-lactalbumin]	mixed
LSGYGP [literature mixed-pattern ACEIP derived from tilapia]	mixed

Same assay, conditions: food-derived non-competitive ACEIPs; ref Xie et al., 2022; Paisansak et al., 2021; cited from earlier work

Substance	ACE inhibition pattern
GYGGVSLPEW	non-competitive
KIGSRSRFDVT	non-competitive
GVSLPEW	non-competitive
VGINYW	non-competitive

Same assay, conditions: peptides derived from eel bone; ref Shao, 2022; cited from earlier work

Substance	IC50 (ACE inhibitory activity)
GPMGPR	2247 µg/mL
GPSGAPGPR	1022 µg/mL
GPAGPR	1246 µg/mL
GPIGPPGPR	1441 µg/mL
PMGPR	1470 µg/mL
GGPGPSGPR	758 µg/mL

Same assay, conditions: peptides derived from large yellow croaker; ref Li, 2021; cited from earlier work

Substance	IC50 (ACE inhibitory activity)
LGYSF	510 µg/mL
LLAGGW	490 µg/mL

Molecular target: T1, ACE
Test: In-vitro ACE inhibitory activity (HHL substrate, hippuric acid absorbance at 228 nm)
Type: biochemical
Conditions: synthetic peptides; 5 mM HHL, 25 mU/mL ACE, 37 °C 30 min, absorbance 228 nm; calculated from regression equations; mean ± SD, n = 3
Method: ACE inhibitory activity of whey hydrolysate fractions with different MW was assessed by a method reported by [Cushman and Cheung (1971)]. In brief, 30 μL of whey hydrolysate fraction was added to 80 μL of 5 mM HHL and incubated at 37 °C for 10 min. Then, 20 μL of 25 mU/ mL ACE was added to the mixture. The reaction was performed at 37 °C for 30 min and then stopped by adding 250 μL of 1 M HCl. Subsequently, 1.7 mL of ethyl acetate was added to the mixture to extract the released hippuric acid. After vigorous stirring for 10 s, the samples were submitted to centrifugation (TLG20M, Changsha Maijiasen Instrument Equipment Co., Ltd., China) at 5,000 rcf at 4 °C for 15 min. Then 1.4 mL of the organic phase was transferred to a fresh test tube. Ethyl acetate was evaporated by placing samples in a boiling water bath. The residue was dissolved in 3 mL of deionized water, and absorbance was measured at 228 nm by enzyme marker (Multiskan FC, Thermo Fisher Scientific). The following formula was used to calculate ACE inhibition rate: ACE-inhibition rate\%:[1-(C-D)/(A-B)]×100% Where A represents the absorbance with ACE but without the sample; B the absorbance without ACE and the sample; C the absorbance in the presence of ACE and the sample; and D the absorbance with the sample but without ACE.

IC50	Substance
> 1160 µM	YDFYPR [YDFYPR]
> 1120 µM	GKWEKPF [GKWEKPF]
> 1200 µM	DDFFHR [DDFFHR]

Tested on: not given
Test: not given
Conditions: 90 % homology to known functional peptides; ref BIOPEP, EROP-Moscow, MBPDB databases; cited from earlier work
Excerpt: Supplement mmc2.doc, table 1: Table S2. Bioactive peptides identified in Rushan cheese whey hydrolysates (RCWH). | column: Potential bioactive

Substance	Potential bioactive
LKPTPEGDLE	Dipeptidyl peptidase IV inhibitor
SKVLPVPQ	ACE inhibitor
DKIHPF	ACE inhibitor
YPFPGPI	ACE inhibitor, Antioxidative, Anticancer
MAIPPKK	ACE inhibitor
PFPGPIPN	ACE inhibitor
AVPYPQR	ACE inhibitor, Antimicrobial, Antioxidative
VYPFPGPIP	Antihypertensive
VYPFPGPI	Antihypertensive
DKVGINYW	ACE inhibitor
DKVGINY	ACE inhibitor
YPFPGPIP	ACE inhibitor, Antioxidative
KVLPVPQK	ACE inhibitor, Antioxidative

Tested on: not given
Test: not given
Conditions: not given
Remark: another data set of the same source

Substance	α-helix content
H-FDRPFL-OH	22.4%
H-KWEKPF-OH	20.2%

Tested on: not given
Test: not given
Conditions: not given
Remark: another data set of the same source

Substance	β-sheet content
H-FDRPFL-OH	38.3%
H-KWEKPF-OH	38%
